Laboratory results as given in patent US5627181A, “6-membered nitrogen-containing heteroaryl-oxazolidinones” (Bayer Aktiengesellschaft, priority 1994, dated 1997).
In brackets after ≈: the same amount, converted by molar mass.

Experiments:
Format in all cases: cell-based
Staph. 48N = assay: MIC values, Staph. 48N; conditions: 37° C., about 20 hours
Experimental: (§1) The minimum inhibitory concentrations (MIC) were determined by the series dilution method on Iso-Sensitest agar (Oxoid). A series of agar plates which contained concentrations of the active compound which decreased by two-fold dilution in each case were prepared for each test substance. The agar plates were inoculated with a Multipoint inoculator (Denley). Overnight cultures of the pathogens which had been diluted beforehand such that each inoculation point contained about 10^4 colony-forming particles were used for the inoculation. The inoculated agar plates were incubated at 37° C. and the germ growth was read off after about 20 hours. The MIC value (μg/ml) indicates the lowest concentration of active compound at which no growth was detectable with the naked eye.
(§2) The MIC values were determined with the aid of the microdilution method in BH medium. Each test substance was dissolved in the nutrient medium. A concentration series of the test substances was prepared in the microtiter plate by serial dilution. Overnight cultures of the pathogens which were diluted 1:250 beforehand in the nutrient medium were used for the inoculation. In each case 100 μl of inoculation solution were added to 100 μl of the diluted nutrient solutions containing the active compound.

Klebs. 57 USA = assay: MIC values, Klebs. 57 USA; conditions: 37° C., about 20 hours
Experimental: as §1, §2

Staph. 9TV = assay: MIC values, Staph. 9TV; conditions: 37° C., about 20 hours
Experimental: as §1, §2

Staph 25701 = assay: MIC values, Staph 25701; conditions: 37° C., about 20 hours
Experimental: as §1, §2

Psdm. Bonn = assay: MIC values, Psdm. Bonn; conditions: 37° C., about 20 hours
Experimental: as §1, §2

E. coli Neumann = assay: MIC values, E. coli Neumann; conditions: Escherichia coli, 37° C., about 20 hours
Experimental: as §1, §2

Staph. 133 = assay: MIC values, Staph. 133; conditions: 37° C., about 20 hours
Experimental: as §1, §2

Compound | MIC (Staph. 48N) | MIC (Klebs. 57 USA) | MIC (Staph. 9TV) | MIC (Staph 25701) | MIC (Psdm. Bonn) | MIC (E. coli Neumann) | MIC (Staph. 133)
CC(=O)NC[C@H]1CN(c2ccc(-c3cccc(C=O)c3)cn2)C(=O)O1 [Example 39] | 0.5 µg/mL (≈ 1.47 µM) | > 32 µg/mL | 0.125 µg/mL (≈ 0.368 µM) | 0.5 µg/mL (≈ 1.47 µM) | > 32 µg/mL | > 32 µg/mL | 0.25 µg/mL (≈ 0.737 µM)
CC(=O)NC[C@H]1CN(c2ccc(-c3ccc(C)cc3)cn2)C(=O)O1 [Example 36, (5S)-3-[5-(4-Methylphenyl)pyridin-2-yl]-5-acetyl-aminomethyl-oxazolidin-2-one] | 4 µg/mL (≈ 12.3 µM) | > 32 µg/mL | 1 µg/mL (≈ 3.07 µM) | 4 µg/mL (≈ 12.3 µM) | > 32 µg/mL | > 32 µg/mL | 4 µg/mL (≈ 12.3 µM)
CC(=O)NC[C@H]1CN(c2ccc(-c3ccc(C(C)=O)s3)cn2)C(=O)O1 [Example 43] | 0.5 µg/mL (≈ 1.39 µM) | > 32 µg/mL | 0.25 µg/mL (≈ 0.696 µM) | 0.5 µg/mL (≈ 1.39 µM) | > 32 µg/mL | > 32 µg/mL | 0.25 µg/mL (≈ 0.696 µM)
CC(=O)NC[C@H]1CN(c2ccc(-c3ccccc3)cn2)C(=O)O1 [Example 37] | 1 µg/mL (≈ 3.21 µM) | > 32 µg/mL | 0.5 µg/mL (≈ 1.61 µM) | 1 µg/mL (≈ 3.21 µM) | > 32 µg/mL | > 32 µg/mL | 1 µg/mL (≈ 3.21 µM)
CC(=O)NC[C@H]1CN(c2ccc(-c3ccc(C=O)cc3)cn2)C(=O)O1 [Example 40] | 1 µg/mL (≈ 2.95 µM) | > 32 µg/mL | 0.5 µg/mL (≈ 1.47 µM) | 1 µg/mL (≈ 2.95 µM) | > 32 µg/mL | > 32 µg/mL | 1 µg/mL (≈ 2.95 µM)
CC(=O)NC[C@H]1CN(c2ccc(-c3ccccc3C=O)cn2)C(=O)O1 [Example 38] | 4 µg/mL (≈ 11.8 µM) | > 32 µg/mL | 2 µg/mL (≈ 5.89 µM) | 8 µg/mL (≈ 23.6 µM) | > 32 µg/mL | > 32 µg/mL | 4 µg/mL (≈ 11.8 µM)
CC(=O)NC[C@H]1CN(c2ccc(-c3cccc([N+](=O)[O-])c3)cn2)C(=O)O1 [Example 48] | 2 µg/mL (≈ 5.61 µM) | > 64 µg/mL | 1 µg/mL (≈ 2.81 µM) | 2 µg/mL (≈ 5.61 µM) | > 64 µg/mL | > 64 µg/mL | 4 µg/mL (≈ 11.2 µM)
CC(=O)NC[C@H]1CN(c2ccc(-c3csc(C=O)c3)cn2)C(=O)O1 [Example 44] | 4 µg/mL (≈ 11.6 µM) | > 32 µg/mL | 2 µg/mL (≈ 5.79 µM) | 2 µg/mL (≈ 5.79 µM) | > 32 µg/mL | > 32 µg/mL | 2 µg/mL (≈ 5.79 µM)
CC(=O)NC[C@H]1CN(c2ccc(-c3cccc(C(C)=O)c3)cn2)C(=O)O1 [Example 42] | 4 µg/mL (≈ 11.3 µM) | > 64 µg/mL | 4 µg/mL (≈ 11.3 µM) | 4 µg/mL (≈ 11.3 µM) |  | > 64 µg/mL | 4 µg/mL (≈ 11.3 µM)

Further lines, results first:

MIC (Staph. 48N) | MIC (Klebs. 57 USA) | MIC (Staph. 9TV) | MIC (Staph 25701) | MIC (Psdm. Bonn) | MIC (E. coli Neumann) | MIC (Staph. 133) | Compound
2 µg/mL (≈ 6.07 µM) | > 64 µg/mL | 1 µg/mL (≈ 3.04 µM) | 1 µg/mL (≈ 3.04 µM) | > 64 µg/mL | > 64 µg/mL | 4 µg/mL (≈ 12.1 µM) | CC(=O)NC[C@H]1CN(c2ccc(-c3ccc(F)cc3)cn2)C(=O)O1 [Example 47]
8 µg/mL (≈ 28 µM) | > 64 µg/mL | 8 µg/mL (≈ 28 µM) | 8 µg/mL (≈ 28 µM) |  | > 64 µg/mL | 8 µg/mL (≈ 28 µM) | CC(=O)NC[C@H]1CN(c2ccc3ncccc3c2)C(=O)O1 [Example 29]
4 µg/mL (≈ 11.3 µM) | > 32 µg/mL | 1 µg/mL (≈ 2.83 µM) | 4 µg/mL (≈ 11.3 µM) | > 32 µg/mL | > 32 µg/mL | 2 µg/mL (≈ 5.66 µM) | CC(=O)NC[C@H]1CN(c2ccc(-c3ccc(C(C)=O)cc3)cn2)C(=O)O1 [Example 41]
2 µg/mL (≈ 5.33 µM) | > 32 µg/mL | 1 µg/mL (≈ 2.66 µM) | 1 µg/mL (≈ 2.66 µM) | > 32 µg/mL | > 32 µg/mL | 1 µg/mL (≈ 2.66 µM) | CC(=O)NC[C@H]1CN(c2ccc3cccc(-c4ccc(C)cc4)c3n2)C(=O)O1 [Example 59]
2 µg/mL (≈ 5.5 µM) | > 64 µg/mL | 2 µg/mL (≈ 5.5 µM) | 4 µg/mL (≈ 11 µM) | > 64 µg/mL | > 64 µg/mL | 8 µg/mL (≈ 22 µM) | CC(=O)NC[C@H]1CN(c2ccc(-c3ccc(F)c(Cl)c3)cn2)C(=O)O1 [Example 46]
